Patent US6486161B1, “Use of rifamycin derivative for treating mastitis in a domestic animal” (priority 2000, dated 2002)
Values after ≈ are worked out from the molar mass of the structure shown. Like-named read-outs stand apart in the source and are kept apart here.

Experiments:
S. aureus B83-1 = test: Mutation frequency for resistance, strain B83-1; format: cell-based, Staphylococcus aureus
Experimental: (§1) The mutation frequency for development of resistance to the rifamycin derivative (1) as compared to rifampin was determined with selected Staphylococcus aureus strains.
(§2) Four S. aureus strains were used: S. aureus 30857, a rifampin-resistant isolate: S. aureus 6097, a strain used in the mouse mastitis test and originally from a case of gangrenous bovine mastitis; S. aureus B83-1, derived from the Newbould 305 strain; and S. aureus ATCC 29213, the in vitro control stain recommended by NCCLS.
(§3) All S. aureus strains were maintained on 3 mm glass beads immersed in trypticase soy broth (BBL Microbiology Systems, Cockeysville, Md.) with 10% glycerol and held at −70° C. until revived. Prior to testing, the strains were subcultured on tryptose blood agar base (Difco, Detroit, Mich.) supplemented with 5% sheep blood for 24 hours at 35° C.
(§4) These compounds were dissolved in 95% ethanol, a solution which was then diluted to 10% ethanol with sterile distilled water. Further dilutions were conducted in water.
(§5) The mutation frequency for development of resistance to the compounds tested was determined by the following method. A single colony of each strain was removed from the surface of a blood agar plate with a cotton swab, suspended in 5 ml of Mueller-Hinton broth (BBL), and streaked on the entire surface of five Mueller-Hinton agar plates. The plates were incubated overnight under aerobic conditions at 35° C., growth was removed from the agar using a sterile cotton swab, and the bacteria were suspended in 10 ml physiological saline. This bacterial suspension was the inoculum for the mutation frequency determinations. Standard plate counts were performed on the inoculum by performing serial dilutions and plating a 0.1 ml aliquot on the surface of ten Mueller-Hinton agar plates at each concentration. The plates were incubated for 18-24 hours at 35° C. under aerobic conditions and colony counts performed. Mean bacterial counts were calculated for the inoculum with each strain.
(§6) A 0.1 ml aliquot of the inoculum was then used to inoculate the entire surface of ten plates each containing 1, 10, and 100 μg/ml of the test antimicrobial agents. The plates were incubated for 18-24 hours at 35° C. under aerobic conditions and colony counts performed. Mean bacterial counts were calculated for each antimicrobial concentration and the mutation frequency calculated by dividing the number of colonies which grew on the drug containing media by the inoculum size.

[1] = tested on: rifampin-resistant S. aureus 30863; test: microbe, parasite or virus in culture; format: cell-based, Staphylococcus aureus; conditions: strain 30863
Experimental: (§7) The antibacterial effect of the rifamycin derivative (1) against rifampin-resistant Staphylococcus aureus bacterial strains was determined. The tested bacterial strains were isolated from a variety of animal diseases as well as laboratory strains.
as §3, with “bacteria” for “S. aureus strains”, “organisms” for “strains”
(§8) The compounds were dissolved in 95% ethanol and diluted to 10% ethanol in sterile, distilled water except for the compounds used in the in vivo testing where saline was used to dilute the original ethanol/drug suspension. Further dilutions were conducted in water or saline.
(§9) MICs were determined using the microbroth dilution method. In addition to the test organisms, the following quality control strain also was tested: Staphylococcus aureus ATCC 29213. The results are shown in Table 5, wherein R is the alkyl group R in the rifamycin derivative (1).

[2] = tested on: rifampin-resistant S. aureus 31068; test: microbe, parasite or virus in culture; format: cell-based, Staphylococcus aureus; conditions: strain 31068
Experimental: as §7
as §3, with “bacteria” for “S. aureus strains”, “organisms” for “strains”
as §8, §9

[3] = tested on: rifampin-resistant S. aureus 30862; test: microbe, parasite or virus in culture; format: cell-based, Staphylococcus aureus; conditions: strain 30862
Experimental: as §7
as §3, with “bacteria” for “S. aureus strains”, “organisms” for “strains”
as §8, §9

[4] = tested on: rifampin-resistant S. aureus 30888; test: microbe, parasite or virus in culture; format: cell-based, Staphylococcus aureus; conditions: strain 30888
Experimental: as §7
as §3, with “bacteria” for “S. aureus strains”, “organisms” for “strains”
as §8, §9

[5] = tested on: rifampin-resistant S. aureus 12637; test: microbe, parasite or virus in culture; format: cell-based, Staphylococcus aureus; conditions: strain 12637
Experimental: as §7
as §3, with “bacteria” for “S. aureus strains”, “organisms” for “strains”
as §8, §9

[6] = tested on: rifampin-resistant S. aureus B93-728M; test: microbe, parasite or virus in culture; format: cell-based, Staphylococcus aureus; conditions: strain B93-728M
Experimental: as §7
as §3, with “bacteria” for “S. aureus strains”, “organisms” for “strains”
as §8, §9

[7] = tested on: rifampin-resistant S. aureus 30871; test: microbe, parasite or virus in culture; format: cell-based, Staphylococcus aureus; conditions: strain 30871
Experimental: as §7
as §3, with “bacteria” for “S. aureus strains”, “organisms” for “strains”
as §8, §9

[8] = tested on: rifampin-resistant S. aureus 30860; test: microbe, parasite or virus in culture; format: cell-based, Staphylococcus aureus; conditions: strain 30860
Experimental: as §7
as §3, with “bacteria” for “S. aureus strains”, “organisms” for “strains”
as §8, §9

[9] = tested on: rifampin-resistant S. aureus 30865; test: microbe, parasite or virus in culture; format: cell-based, Staphylococcus aureus; conditions: strain 30865
Experimental: as §7
as §3, with “bacteria” for “S. aureus strains”, “organisms” for “strains”
as §8, §9

[10] = tested on: rifampin-resistant S. aureus 30858; test: microbe, parasite or virus in culture; format: cell-based, Staphylococcus aureus; conditions: strain 30858
Experimental: as §7
as §3, with “bacteria” for “S. aureus strains”, “organisms” for “strains”
as §8, §9

[11] = tested on: rifampin-resistant S. aureus 30867; test: microbe, parasite or virus in culture; format: cell-based, Staphylococcus aureus; conditions: strain 30867
Experimental: as §7
as §3, with “bacteria” for “S. aureus strains”, “organisms” for “strains”
as §8, §9

[12] = tested on: rifampin-resistant S. aureus 30869; test: microbe, parasite or virus in culture; format: cell-based, Staphylococcus aureus; conditions: strain 30869
Experimental: as §7
as §3, with “bacteria” for “S. aureus strains”, “organisms” for “strains”
as §8, §9

[13] = tested on: rifampin-resistant S. aureus 30859; test: microbe, parasite or virus in culture; format: cell-based, Staphylococcus aureus; conditions: strain 30859
Experimental: as §7
as §3, with “bacteria” for “S. aureus strains”, “organisms” for “strains”
as §8, §9

[14] = tested on: Staphylococcus aureus 6097; test: Dose titration in the mouse mastitis model (S. aureus-induced murine mastitis); format: in vivo; conditions: mice, read 6 days after infection; for ED (mg/kg/d) Mastitis: 50% of mice without mastitis; for ED (mg/kg/d) Culture: 50% of mice with no bacteria cultured from gland
[15] = tested on: Staphylococcus aureus 9203; test: MIC against the strain of the intracellular killing assay; format: cell-based
S. aureus 6097 [16] = test: MIC, microbroth dilution, strain 6097; format: cell-based, Staphylococcus aureus
Experimental: as §2, §3, §4
MIC (Minimum Inhibitory Concentration) determinations were performed using the microbroth dilution method. (National Committee for Clinical Laboratory Standards, 1990 Approved Standard […]. Methods for dilution antimicrobial susceptibility tests for bacteria that grow aerobically, 3rd edition. National Committee for Clinical Laboratory Standards, Villanova, Pa.) The results are shown in Table 3, wherein R is the alkyl group R in the rifamycin derivative (1).

S. aureus 6097 [17] = test: Mutation frequency for resistance, strain 6097; format: cell-based, Staphylococcus aureus
Experimental: as §1, §2, §3, §4, §5, §6

[18] = route IMM (intramammary), 1 hour after infection
[19] = Staphylococcus aureus, read-out: MIC

## COC1/C=C/OC2(C)Oc3c(C)c(O)c4c(=O)c(c5oc6cc(N7CCN(C)CC7)cc(O)c6nc-5c4c3C2=O)NC(=O)/C(C)=C\C=C\C(C)C(O)C(C)C(O)C(C)C(OC(C)=O)C1C (stereo not drawn) [R = methyl]
S. aureus B83-1; 1 μg/ml
  Mutation frequency: 1.5 × 10^−8
S. aureus B83-1; 10 μg/ml
  Mutation frequency: <1.8 × 10^−9
S. aureus B83-1; 100 μg/ml
  Mutation frequency: <1.8 × 10^−9
[1]
  MIC: 0.25 µg/mL (≈ 0.278 µM)
[2]
  MIC: 2.0 µg/mL (≈ 2.22 µM)
[3]
  MIC: 2.0 µg/mL (≈ 2.22 µM)
[4]
  MIC: 0.13 µg/mL (≈ 0.145 µM)
[5]
  MIC: 0.25 µg/mL (≈ 0.278 µM)
[6]
  MIC: 0.5 µg/mL (≈ 0.556 µM)
[7]
  MIC: 2.0 µg/mL (≈ 2.22 µM)
[8]
  MIC: 4.0 µg/mL (≈ 4.45 µM)
[9]
  MIC: 0.06 µg/mL (≈ 0.0667 µM)
[10]
  MIC: 2.0 µg/mL (≈ 2.22 µM)
[11]
  MIC: 0.5 µg/mL (≈ 0.556 µM)
[12]
  MIC: 0.25 µg/mL (≈ 0.278 µM)
[13]
  MIC: 0.25 µg/mL (≈ 0.278 µM)
[14]; [18]
  ED (mg/kg/d) Mastitis: 0.3 mg/kg/day
[14]; route IMM (intramammary)
  ED (mg/kg/d) Culture: 0.3 mg/kg/day
[14]; route SC (subcutaneous)
  ED (mg/kg/d) Culture: 0.5 mg/kg/day
  ED (mg/kg/d) Mastitis: 0.2 mg/kg/day
[15]
  MIC: ≦0.03 μg/ml
S. aureus 6097 [16]
  MIC: 0.061 ng/mL (≈ 6.79e-05 µM)
S. aureus 6097 [17]; 1 μg/ml
  Mutation frequency: 4.0 × 10^−8
S. aureus 6097 [17]; 10 μg/ml
  Mutation frequency: <1.8 × 10^−10
S. aureus 6097 [17]; 100 μg/ml
  Mutation frequency: <1.8 × 10^−10

## CO[C@H]1/C=C/O[C@@]2(C)Oc3c(C)c(O)c4c(O)c(c(/C=N/N5CCN(C)CC5)c(O)c4c3C2=O)NC(=O)/C(C)=C\C=C\[C@H](C)[C@H](O)[C@@H](C)[C@@H](O)[C@@H](C)[C@H](OC(C)=O)[C@@H]1C [Rifampin, reference compound]
S. aureus B83-1; 1 μg/ml
  Mutation frequency: 3.7 × 10^−8
S. aureus B83-1; 10 μg/ml
  Mutation frequency: 4.5 × 10^−8
S. aureus B83-1; 100 μg/ml
  Mutation frequency: 1.9 × 10^−8
[1]; [19]
  MIC: > 32 µg/mL
[2]; [19]
  MIC: 4 µg/mL (≈ 4.86 µM)
[3]; [19]
  MIC: > 32 µg/mL
[4]; [19]
  MIC: > 32 µg/mL
[5]; [19]
  MIC: > 32 µg/mL
[6]; [19]
  MIC: 2 µg/mL (≈ 2.43 µM)
[7]; [19]
  MIC: > 32 µg/mL
[8]; [19]
  MIC: > 32 µg/mL
[9]; [19]
  MIC: 32 µg/mL (≈ 38.9 µM)
[10]; [19]
  MIC: 8 µg/mL (≈ 9.72 µM)
[11]; [19]
  MIC: 32 µg/mL (≈ 38.9 µM)
[12]; [19]
  MIC: 4 µg/mL (≈ 4.86 µM)
[13]; [19]
  MIC: > 32 µg/mL
[14]; [18]
  ED (mg/kg/d) Mastitis: 0.4 mg/kg/day
[14]; route IMM (intramammary)
  ED (mg/kg/d) Culture: >2.0 mg/kg/day
[15]; read-out: MIC
  MIC: ≤ 0.03 µg/mL
S. aureus 6097 [16]; [19]
  MIC: 1.9 ng/mL (≈ 0.00231 µM)
S. aureus 6097 [17]; 1 μg/ml
  Mutation frequency: 1.2 × 10^−8
S. aureus 6097 [17]; 10 μg/ml
  Mutation frequency: 2.0 × 10^−8
S. aureus 6097 [17]; 100 μg/ml
  Mutation frequency: 4.9 × 10^−9
